Assay results: patent US10301263B2, “Anticonvulsant compound” (Royal Holloway and Bedford New College, priority 2014, dated 2019)
pIC50: −log10 of the molar value.

Legend:
AMPA receptors = test: AMPA receptor mediated current, AMPA receptors expressed in oocytes (FIG. 1); format: cell-based
Method: Xenopus laevis oocytes were purchased from the European Xenopus Resource Centre, University of Portsmouth.
The bath solutions were perfused at a rate of 10 ml/min.

[1] = test system: rat entorhinal cortex-hippocampus slices; test: PTZ-induced epileptiform activity in entorhinal cortex-hippocampus slices (CA1 field recording); format: cell-based
Method: The preparation of entorhinal cortex-hippocampus slices and electrophysiological recording in CA1 were described previously (Armand et al., 1998; Chang and Walker, 2011). In brief, male rats (50-150 g) were decapitated after killing by intraperitoneal injection with an overdose of pentobarbitone (500 mg/kg). The brain was removed and preserved in oxygenated ice-cold sucrose solution in mM: NaCl 87, KCl 2.5, MgCl2 7, CaCl2 0.5, NaH2PO4 1.25, NaHCO3 26.2 sucrose 75, glucose 3. Transverse slices (350 μm) were prepared with a vibratome (VIBRATOME® 1500, Intracel Ltd) and were then stored in an interface chamber containing artificial cerebrospinal fluid solution (aCSF) in mM: NaCl 119, KCl 2.5, MgSO4 1.3, CaCl2 2.5, NaH2PO4 1, NaHCO3 26.2 glucose 16.6. The slices were stored for over one hour. During the experiment, the slices were transferred from the interface chamber into a submerged recording chamber and continuously perfused with prewarmed (about 36° C.) oxygenated (95% O2, 5% CO2) aCSF. A field potential recording was made by placing a glass microelectrodes filled with aCSF solution in stratum radiatum of CA1. A bipolar stimulating electrode was positioned in the Schaffer collateral/commissural fiber pathway in stratum radiatum to confirm slice viability. […] Anticonvulsant effects were evaluated by measuring the frequency of the discharges every minute.

[2] = test system: histone deacetylase (HDAC); test: HDAC activity assay (fluorescent kit, human nuclear enzyme extracts from HeLa cells); format: biochemical
Method: FIG. 4b is a graph showing quantification of a histone deacetylase (HDAC) inhibition assay employing human nuclear enzyme extracts (from HeLa cells) as the source of HDAC activity shown as fitted dose-response curves for 4-BCCA;
Histone deacetylase activity was analyzed by using an in vitro commercial assay kit, the HDAC fluorescent activity assay/drug discovery kit HDAC activity (Biomol, Plymouth Meeting, Pa.). The assay was conducted at room temperature according to the manufacturer's protocol, using Trichostatin A (a HDAC inhibitor; at 1 μM concentration) as a positive control. Data were derived from at least triplicate experiments with each experiment comprising at least duplicate measurements (n=6) normalized to controls (without VPA or fatty acids).

[3] = test system: 6 Hz corneal stimulation seizures in CF1 mice; test: 6 Hz psychomotor seizure test; format: in vivo; conditions: Mus musculus, ip, 32 mA for 3 s
Method: Adult male CF1 mice (18-25 g) were pretreated intraperitoneally (i.p.) with each compound at 100-150 mg/kg. After pretreatment, each mouse was given a drop of 0.5% tetracaine hydrochloride to each eye, following by low-frequency (6 Hz) stimulation (32 mA) for 3 seconds delivered through corneal electrodes. Animals were manually restrained and released immediately following the stimulation and observed for the presence or absence of seizure activity at five time points (1/4, 1/2, 1, 2, and 4 hours). Typically, the 6 Hz stimulation results in a seizure characterized by a minimal clonic phase that is followed by stereotyped, automatistic behaviors, including twitching of the vibrissae, and Straub-tail. Animals not displaying such behaviors were considered protected.
The inventors first employed a low frequency (6 Hz), long duration (3 s) corneal stimulation model because numerous second generation anti-epileptic drugs show poor seizure control in this assay (and so such a model may provide evidence of efficacy in drug resistant epilepsy). In this model, compounds are pre-administered to mice via i.p. injection and mice are challenged with sufficient current to elicit a psychomotor response (32 mA for 3 s) (Toman et al., 1952). The model causes forelimb clonus and then automatistic behavior characteristic of limbic epilepsy in humans. […]

MES-induced seizures = test: Maximal electroshock test (MES); format: in vivo, mice; conditions: Mus musculus, ip
Method: The MES is a model for generalized tonic-clonic seizures which provides an indication of a compound's ability to prevent seizure spread when all neuronal circuits in the brain are maximally active. Animals are pretreated with compounds (100-125 mg/kg) by i.p. injection. Seizure activity was induced by delivery of 60 Hz of alternating current (50 mA in mice, 150 in rats) for 0.2 s through corneal electrodes which had been primed with an electrolyte solution containing an anesthetic agent (0.5% tetracaine HCl). An animal is considered “protected” from MES-induced seizures upon abolition of the hind limb tonic extensor component of the seizure (Swinyard et al., 1995; White et al., 1995; White et al., 2007).

[4] = test system: Metrazol-induced clonic seizures; test: Subcutaneous Metrazol seizure threshold test (scMET); format: in vivo, mice; conditions: i.p.
Method: Subcutaneous injection of Metrazol produces clonic seizures in animals. […] Animals were pretreated with each compound (100 mg/kg) in a similar manner to the MES test. Seizure activity was induced by administration of Metrazol (CD97: 85 mg/kg mice; 70 mg/kg rats) into skin in the midline of the neck.

corneal kindled CF1 mice [5] = test: Corneal kindled mouse model (CKM); format: in vivo; conditions: i.p.
Method: This model involves the use of corneal kindled mouse model for prediction of efficacy in human partial seizures (Rowley and White, 2010). Adult male CF1 mice (18-25 g) mice were stimulated through corneal electrodes (3 mA, 60 Hz, 3 seconds) after administration of 0.5% tetracaine hydrochloride to each eye. This procedure was carried out twice daily for an average of 12 days.
After 5-7-days stimulation-free period once the mice were fully kindled, the test compounds were administrated (100 mg/kg, i.p.). Mice in each group were then tested at various time points (0.25, 0.5, 1, 2, 4 hours) after drug dosing. Mice displaying a seizure score <3 are considered protected.

[6] = test system: rat entorhinal cortex-hippocampus slices; conditions: PTZ-induced seizure-like activity in rat hippocampal slices; Chang et al., 2013; cited from earlier work
[7] = test system: Metrazol-induced clonic seizures; conditions: scMET; Rowley and White, 2010; cited from earlier work
corneal kindled CF1 mice [8] = conditions: corneal kindled mouse; cited from earlier work
[9] = DSMV IV, 2000; cited from earlier work

SMILES	potency of AMPA receptors inhibition (as determined by IC50) relative to decanoic acid (DA) and 4-ethyloctanoic acid (4-EOA) (AMPA receptors)	epileptiform activity (frequency of PTZ-induced burst discharges) ([1]; PTZ 2 mM, K+ 6 mM, 20-40 minute treatment, n=5, 1 mM)	block in seizure activity ([1]; PTZ-induced seizure-like activity in rat hippocampal slices) [%]	HDAC inhibition ([2]; FIG. 4B dose-response)	HDAC inhibitory effect ([2]; upto 10 mM, HDAC extract derived from a human cell line)	ED50 [3] [mg/kg]	ED50 (MES-induced seizures) [mg/kg]	EC50 value [4] [mg/kg]	EC50 value (corneal kindled CF1 mice [5]) [mg/kg]	pIC50 ([2]; HDAC extract derived from a human cell line, read-out: IC50 against HDAC)	reduction in seizure activity [6] [%]	equivalent effect (to EC50) dose [7] [mg/kg]	equivalent activity (to EC50) dose (corneal kindled CF1 mice [8]) [mg/kg]	concentrations found in plasma [9] [µM]
CCCC[C@H]1CC[C@H](C(=O)O)CC1 [Compound 4-BCCA, trans-4-butylcyclohexane carboxylic acid]	comparable potency	1.7±1.5 % of baseline	100	no HDAC inhibition	does not cause significant inhibitory effect	81	100	~150	44	–	–	–	–	–
CCCC(CCC)C(=O)O [valproic acid, 2-propylpentanoic acid]	–	–	–	–	–	–	–	–	–	2.64	23	191	174	400 to 700
